Entries after “also recorded” stand apart in the source; their conditions may differ.
Tests used:
[1] = system: Varroa mites; assay: Evaluation of acaricidal effect: emerging bees loaded with Varroa mites in glass petri dish, compound on Parafilm; type: in vivo, Varroa destructor
Description: The effect of the compounds was checked in free moving-mites freshly collected from the bottom board using fine paint brush. All collected Varroa were kept on emerging bees at room temperature until the experiment.
Compounds (code-labeled, Table 1) were prepared in hexane:ethyl acetate (1:1) in 10 mM concentration according to instructions. Dilutions only of compound “A” was prepared. […] This setup enabled the testing of all the compounds and to save the mites.
The assay was conducted in glass petri dish (90 mm diameter and 17 mm deep glass) containing moistened filter paper. Five emerging bees loaded with two Varroa mites were put into each plate. The bees were provided with candy (60% of pollen and 40% sugar). 10 μl or 30 μl volume of each compound or control mix was placed on Parafilm paper (5×5 cm) on the plates cover.

[2] = system: Varroa foreleg; assay: Electroantennography (EAG) on Varroa foreleg stimulated with nurse bee headspace odor; set-up: species or system Varroa destructor
Description: In the electroantennography (EAG), the Varroa foreleg or bee antennae were used for the assay. The organs were stimulated by puffs of nurse honeybee odor, or clean air (control). Briefly, once a foreleg or bee antenna preparation was found responsive to a positive stimulus, the tested chemical was blown over the leg/antenna with or without positive stimuli. Headspace of five nurse bees was used as a positive stimulus. This stimuli were selected for Varroa following the procedure described, for example, in Eliash, N. et al., (2014) PLoS One, (2014) 9(12): e116127, incorporated herein by reference in its entirety, and following dose response tests on nurse antennae challenged with headspace of 1, 5 and 10 nurse or forager bees. Electrophysiological responses of isolated Varroa foreleg and bee antennae were recorded using Synthech equipment, and the order of stimuli was as explained in Singh, K. N. et al., (2014) Apidologie, 46: 380-391, incorporated herein by reference in its entirety. The response amplitude was recorded for each stimulus and normalized relative to air.

[3] = system: Varroa mites phoretic on young bees; assay: Example 2 assay on mites phoretic on young bees (mite fall); type: in vivo, Varroa destructor; conditions: 100 microgram/μl solution and dilutions; end of experiment
Description: (§1) The experiments were conducted in glass petri dish under control environment as described above in Example 1. Two sets of experiments were conducted compound 3c{3,6}:
(§2) 2. Assay on mites phoretic on young bees. In this experiment 100 microgram/μ1 solution and its dilutions were used. Two mites were placed on each living young bee.
(§3) In the second assay the percentage of mites dropping from bees as function of time was measured (FIG. 2).

[4] = system: young bees; assay: Example 2 assay on mites phoretic on young bees: condition of the bees; type: in vivo, Apis mellifera; conditions: end of experiment
Description: as §1, §2, §3

[5] = system: Varroa destructor mites; assay: Example 3 mite paralysis/death in the absence of bees; type: in vivo; conditions: no bees
Description: Experiments were performed in the dishes: i) dose response assays with a single compound at different doses of compound on the Parafilm (1 ng, 10 ng, 100 ng, 1 μg, 10 μg, 100 μg, 1 mg and 10 mg), ii) a screen with six compounds, all at a 1 mg dose, iii) an assay with blends of compounds 3c{3,6} and 3c{6,6}, and iv) one assay without bees (only to check for mite paralysis and death), with compounds 3c{3,6} and 3c{6,6}(pure or 1:1 blend), at 0.5 and 1 mg doses.
Compounds 3c{3,6}, 3c{6,6} were tested on mites in the absence of bees, alone and as a 1:1 blend. Mite paralysis and death were checked every 30 min, up to 4.5 h after initial exposure. Four doses were tested: 0.2, 0.5, 1 and 10 mg.

[6] = system: Varroa; assay: Example 5 Varroa death and paralysis assay, single compounds and blend; set-up: species or system Varroa destructor; conditions: in vivo
Description: Assays were done in 9 cm glass Petri dishes. A 2.5×2.5 cm piece of Parafilm was stuck to the lid of the dish, in the middle. 120 μL water were put on filter paper in the middle of the plate. The Parafilm received 10 μL of hexane, either pure (controls) or with the compound (treatments). The bottom of the dish received one freshly thawed nurse and one freshly thawed forager, placed at opposite sides. One mite was placed between the nurse and the forager, the lid was closed and groups of dishes were placed in an incubator at 30° C. Observation times were at 3 h, 5 h and 20 h. Mites were scored for whether the mite could move normally, was paralyzed (had difficulty moving) or dead (not moving). Four types of experiment were performed in the dishes: i) dose response assays with a single compound at different doses of compound on the Parafilm (1 ng, 10 ng, 100 ng, 1 μg, 10 μg, 100 μg, 1 mg) an assay with blends of compounds 3c{3,6} and 3c{6,6} (pure or 1:1 blend) at 0.5 mg and […].

[7] = system: Varroa mites; assay: Example 6 behavioral dose response bio-assays of Varroa mites; type: in vivo
Description: Foragers were collected at the entrance of one or more honey bee hives by aspiration into a jar, when bees were flying back to the colony.
Initially, nurses were collected from an open brood frame of a honey bee hive. Bees apparently attending the brood were targeted for collection. As time passed and temperatures started to drop no open brood was observed, therefore subsequent collections targeted bees around sealed brood. At the end of the sampling period no sealed brood was present, so bees taken from the middle frame of a brood chamber were considered nurses.
Both foragers and nurses were immediately transferred to individual plastic cages (118×98×81 mm: H×W×D), fed with syrup (2:1) and kept overnight in an incubator at 30° C. and 70% RH. Next day, cages were inspected for any dead bees to be removed before freeze killing the bees on dry ice.
For Varroa mite collection, adult bees were taken from the brood chamber's central frames of a mite-infested hive using a glass jar. Bees were fed with syrup (2:1), and kept in an incubator at 30° C. and 70% RH until needed. First collections were made from frames with open and sealed brood, later only from sealed brood frames.
Mite-infested bees in the glass jar were dusted with icy sugar and shaken over a large plastic weighing boat. Dislodged Varroa were immediately transferred with a fine paint brush to a wet filter paper in a plastic petri dish to avoid desiccation. Individual mites were placed then onto the middle of a glass petri dish bottom (10 cm diameter) with a fresh freeze-killed forager or nurse bee on opposite sides of the plate. Synthesized compounds were applied onto a 1 cm^2 Parafilm square attached to the center of the petri dish cover's inner face, Hexane was used as control.
The bio-assays with a forager and a nurse bee, Varroa mite, and synthesized compounds were set in glass petri dishes placed into an incubator at 30° C. and 70% relative humidity. […] Mite paralysis and death were recorded after 3 h and 5 h.

## C=CCOc1ccc(OCCC)cc1 [3c{3,6}, 1-allyloxy-4-propoxybenzene]
[1]; dilutions of 10 mM solution, any concentration
  miticidal effect of dilutions: no miticidal effect
[1]; highest amount tested (30 μl), end of 24 h
  acaricidal effect: clear acaricidal effect
[2]
  Varroa foreleg responses towards head space odor of nurse bees: decreases
[3]
  mites dropping from bees as function of time (FIG. 2): dropped dead off the bees
[4]
  condition of bees: remained in perfect shape
[5]; 0.2 mg, 4.5 h
  mite paralysis+death: 40%
[5]; 0.5 mg, 4.5 h
  mite paralysis+death: 80%
[5]; 1 mg, up to 4.5 h
  mite paralysis or death: 100%
[5]; 10 mg, 4.5 h
  mite paralysis or death: 100%
[6]
  acaricidal activity alone: acaricidal
[7]; 100 μg
  mites dead: half of the mites dead
[7]; 1 mg
  mite paralysis/mortality: 100%
  mite paralysis/mortality (words): total effectivity; also recorded: all mites
[7]; FIG. 9 / FIG. 10
  doses at which mites were paralyzed or killed: ≥ 10 µg

Reference: patent US11540515B2, “Use of dialkoxybenzenes for control of honey bee mite varroa destructor” (Simon Fraser University, priority 2018, dated 2023)
